Data reported in patent US6914045B2, “Glycopeptide antibiotics” (Wyeth Holdings Corporation, priority 2001, dated 2005).

What was measured:
Assay in all cases: in vitro antibacterial evaluation, MIC by broth dilution
Type in all cases: cell-based
[1] = tested on: Escherichia coli; details: 18 hours at 35° C.
How it was run: (§1)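 Broth dilution per NCCLS M7-A2 in Mueller-Hinton II medium, inoculum 5×10^5 CFU/mL, antibiotic range 64-0.06 μg/mL. MIC taken as lowest concentration inhibiting growth; Gram-positive panel includes recent clinical isolates resistant to methicillin, penicillin and/or vancomycin.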

[2] = tested on: Streptococcus sp.; details: broth dilution, 18 hours at 35° C.
How it was run: as §1

[3] = tested on: Staphylococcus sp.; details: broth dilution, 18 hours at 35° C.
How it was run: as §1

[4] = tested on: Enterococcus sp.; details: broth dilution, 18 hours at 35° C.
How it was run: as §1

CC(c1ccccc1)C1NC(=O)CNC(=O)C(CO)NC(=O)C(C(O)C2CNC(=N)N2C2OC(CO)C(O)C(O)C2O)NC(=O)C(C(O)C2CNC(=N)N2)NC(=O)C(Cc2ccc(OC3OC(CO)C(OC4OC5COC(c6cccs6)OC5C(O)C4O)C(O)C3O)cc2)NC1=O (stereo not shown) [Example 132]
4 µg/mL: MIC Staphylococcus aureus (ATCC 29213) [3] | MIC Staphylococcus aureus (GC 3053) [3] | MIC Staphylococcus aureus (GC 4544) [3] | MIC Staphylococcus aureus (ATCC 29213) ([3]; strain ATCC 29213) | MIC Staphylococcus aureus (GC 3053) ([3]; strain GC 3053) | MIC Staphylococcus aureus (GC 4544) ([3]; strain GC 4544) | MIC Enterococcus faecium (GC 4557) ([4]; Enterococcus faecium (GC 4557)) | MIC Enterococcus faecium (GC 4557) ([4]; strain GC 4557)
16 µg/mL: MIC Enterococcus avium (GC 4558) ([4]; Enterococcus avium (GC 4558)) | MIC Enterococcus faecalis (GC 3059) ([4]; Enterococcus faecalis (GC 3059)) | MIC Enterococcus faecalis (GC 4553) ([4]; Enterococcus faecalis (GC 4553)) | MIC Enterococcus faecalis (GC 3059) ([4]; strain GC 3059) | MIC Enterococcus faecalis (GC 4553) ([4]; strain GC 4553) | MIC Enterococcus avium (GC 4558) ([4]; strain GC 4558)
2 µg/mL: MIC Staphylococcus aureus (GC 1131) [3] | MIC Staphylococcus aureus (GC 3051) [3] | MIC Staphylococcus aureus (GC 4541) [3] | MIC Staphylococcus aureus (GC 4542) [3] | MIC Staphylococcus aureus (GC 4545) [3] | MIC Staphylococcus aureus (GC 1131) ([3]; inoculum 5×10^5 CFU/mL, strain GC 1131) | MIC Staphylococcus aureus (GC 3051) ([3]; strain GC 3051) | MIC Staphylococcus aureus (GC 4541) ([3]; strain GC 4541) | MIC Staphylococcus aureus (GC 4542) ([3]; strain GC 4542) | MIC Staphylococcus aureus-SMITH (GC 4543) ([3]; strain GC 4543) | MIC Staphylococcus aureus (GC 4545) ([3]; strain GC 4545) | MIC Coagulase Negative Staphylococcus (GC 4547) ([3]; strain GC 4547) | MIC Coagulase Negative Staphylococcus (GC 4551) ([3]; strain GC 4551) | MIC Staphylococcus aureus-SMITH (GC 4543) ([3]; strain SMITH GC 4543)
8 µg/mL: MIC Enterococcus faecalis (ATCC 29212) ([4]; Enterococcus faecalis (ATCC 29212)) | MIC Enterococcus faecalis (GC 2242) ([4]; Enterococcus faecalis (GC 2242)) | MIC Enterococcus faecalis (GC 2691) ([4]; Enterococcus faecalis (GC 2691)) | MIC Enterococcus faecalis (GC 4552) ([4]; Enterococcus faecalis (GC 4552)) | MIC Enterococcus faecalis (GC 4554) ([4]; Enterococcus faecalis (GC 4554)) | MIC Enterococcus faecalis (GC 6189) ([4]; Enterococcus faecalis (GC 6189)) | MIC Enterococcus faecium (GC 2243) ([4]; Enterococcus faecium (GC 2243)) | MIC Enterococcus faecium (GC 4556) ([4]; Enterococcus faecium (GC 4556)) | MIC Enterococcus faecalis (ATCC 29212) ([4]; strain ATCC 29212) | MIC Enterococcus faecalis (GC 2242) ([4]; strain GC 2242) | MIC Enterococcus faecium (GC 2243) ([4]; strain GC 2243) | MIC Enterococcus faecalis (GC 2691) ([4]; strain GC 2691) | MIC Enterococcus faecalis (GC 4552) ([4]; strain GC 4552) | MIC Enterococcus faecalis (GC 4554) ([4]; strain GC 4554) | MIC Enterococcus faecium (GC 4556) ([4]; strain GC 4556) | MIC Enterococcus faecalis (GC 6189) ([4]; strain GC 6189)
0.12 µg/mL: MIC Streptococcus pneumoniae (GC 1894) ([2]; Streptococcus pneumoniae (GC 1894)) | MIC Streptococcus pneumoniae (GC 1894) ([2]; strain GC 1894)
>64 µg/mL: MIC Escherichia coli (ATCC 25922) ([1]; strain ATCC 25922)
0.5 µg/mL: MIC Streptococcus agalactiae (GC 4564) ([2]; Streptococcus agalactiae (GC 4564)) | MIC Streptococcus pyogenes (GC 4563) ([2]; Streptococcus pyogenes (GC 4563)) | MIC Streptococcus pyogenes (GC 4563) ([2]; strain GC 4563) | MIC Streptococcus agalactiae (GC 4564) ([2]; strain GC 4564)
32 µg/mL: MIC Escherichia coli (GC 4559) ([1]; strain GC 4559)
0.25 µg/mL: MIC Streptococcus pneumoniae (ATCC 6301) ([2]; Streptococcus pneumoniae (ATCC 6301)) | MIC Streptococcus pneumoniae (GC 4565) ([2]; Streptococcus pneumoniae (GC 4565)) | MIC Streptococcus pneumoniae (ATCC 6301) ([2]; strain ATCC 6301) | MIC Streptococcus pneumoniae (GC 4565) ([2]; strain GC 4565)
1 µg/mL: MIC Escherichia coli (GC 4560) ([1]; strain GC 4560) | MIC Staphylococcus haemolyticus (GC 4546) ([3]; strain GC 4546) | MIC Coagulase Negative Staphylococcus (GC 4548) ([3]; strain GC 4548) | MIC Coagulase Negative Staphylococcus (GC 4549) ([3]; strain GC 4549) | MIC Coagulase Negative Staphylococcus (GC 6257) ([3]; strain GC 6257)
